# How the values were obtained:
# [1] = system: striatal medium spiny neurons (MSNs); assay: HD brain slice assay (mHTT-Q73 transfected corticostriatal explants); format: cell-based; conditions: rat corticostriatal brain slice explants, YFP + mHTT-Q73, 4 days
# Experimental: Brain slice explants were prepared and transfected as previously described (Reinhart et al., 2011). Briefly, brains were taken from postnatal day 10 CD Sprague-Dawley rat pups and cut into 250 μm coronal slices on a vibratome (Vibratome Co., St. Louis, Mo.). Brain slices containing striatum and cortex were then placed in individual wells of 12-well plates atop culture medium set in 0.5% agarose and maintained at 32° C. under 5% CO2. Co-transfection with YFP and Htt exon-1 containing a 73 polyglutamine repeat was done using a biolistic device (Bio-Rad Helios Gene Gun, Hercules, Calif.). Positive controls were transfected with YFP only or treated with a combination of 50 μM KW-6002 (istradefylline) and 50 μM SP600125. Negative control brain slices were treated with 0.1% DMSO carrier only. Striatal medium spiny neurons (MSNs) expressing YFP were visualized under fluorescence microscopy and identified based on their location within brain slices and their characteristic morphology.
# Having elucidated aspects of the biophysical mechanism of action of LOC14 binding to PDI, the next exploration concerned whether LOC14 would be a good candidate for in vivo studies. […] In the absence of LOC14, very few healthy MSNs remained, as assessed by the lack of normal sized and shaped cell bodies, absence of long primary dendrites, and lack of continuous expression of YFP throughout the cell (FIG. 10).
# Solubility = conditions: DMSO, Table 5
# [2] = target: T1, recombinant catalytic a domain of human PDI A1 (PDIa) (Homo sapiens, UniProt P07237); assay: Insulin aggregation assay (PDIa reductase activity); format: biochemical
# T1 construct: made in house; host or cells: Escherichia coli BL21-Gold (DE3)
# [3] = Single-dose pharmacokinetic study (BBB penetration); format: in vivo; conditions: single-dose 20 mg/kg, intravenously or orally, mice
# Experimental: LOC14 administered via (FIG. 17A) intravenous or (FIG. 17B) oral route to wild-type C57BL/6j mice at 20 mg/kg. The concentration of compound in the brain tissue and plasma is shown for each individual mouse (represented by dots). The horizontal lines represent the mean±SD (n=3).
# Showing promising in vitro metabolic properties, LOC14 was tested in a single-dose pharmacokinetic (PK) study. This was a pilot study to evaluate the ability of LOC14 to traverse the blood-brain barrier (BBB). In this study, LOC14 was administered via two routes, intravenously (FIG. 17A) or orally (FIG. 17B), at a single-dose of 20 mg/kg to wild-type C57BL/6j mice.
# [4] = Mouse plasma stability assay; format: in vitro ADME; conditions: compound 1.0 μM
# Experimental: Test compound (1 μM) was incubated at 37° C. for up to 120 minutes in mouse plasma. At 0, 15, 30, 60, and 120 minute intervals an 100 μL aliquot was taken and quenched with 200 μL acetonitrile (ACN) containing internal standard. Following completion of the experimentation, the samples were analyzed by LC-MS/MS. The half-life (t1/2) was calculated using the following equation: t1/2=0.693/k, where, k is the elimination rate constant of test compounds obtained by fitting the data to the equation: C=initial×exp (−k×t). Results were reported as peak area ratios of analyte to internal standard.
# The microsome stability assay, plasma stability assay, and plasma protein binding assay were each performed by Alliance Pharma, Inc. (Malvern, Pa.).
# T1 sequence (P07237 with tags, fused parts or gaps): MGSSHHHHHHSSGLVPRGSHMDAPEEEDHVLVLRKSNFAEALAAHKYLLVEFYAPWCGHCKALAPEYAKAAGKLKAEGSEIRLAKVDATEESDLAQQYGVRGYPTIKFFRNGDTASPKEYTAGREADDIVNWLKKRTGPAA
compound,measurement,setting,value
"O=C(C1CC1)N1CCN(Cn2sc3ccccc3c2=O)CC1 [LOC14, 2-((4-(cyclopropanecarbonyl)piperazin-1-yl)methyl)benzo[d]isothiazol-3(2H)-one]",rescue of MSNs from mutant huntingtin-induced neurodegeneration,[1],rescued MSNs in a concentration-dependent manner
same,Solubility in DMSO,Solubility,100 mM in DMSO
same,Insulin Assay (either active or inactive),[2]; Table 5,Active
same,PDI's enzymatic activity after dilution of pre-formed complex,"[2]; compound 750 μM + PDIa 500 μM, diluted 100-fold",complete recovery
same,blood-brain barrier penetration,[3],penetrated the BBB
same,tolerability,[3],well tolerated
same,% Remaining after 2-hour incubation,[4],49.9%
same,Elimination rate constant (k),[4],0.0049
same,half-life at 1 μM,[4]; read-out: Half-life (t1/2) (converted),2.4 h

# From patent US20180092908A1, “SMALL MOLECULE OXIDIZERS OF PDI AND THEIR USE” (THE TRUSTEES OF COLUMBIA UNIVERSITY IN THE CITY OF NEW YORK, priority 2015, published 2018)
